Reference: patent publication US20070202158A1, “Methods Of Administering Water-Soluble Prodrugs Of Propofol For Extended Sedation” (MGI GP, Inc., priority 2003, published 2007)

What was measured:
[1] = Crossover study of plasma bioavailability of propofol in human volunteers after oral or intraduodenal prodrug (Table II); type: in vivo; conditions: for Blood plasma concentration of propofol, Mean / Blood plasma concentration of propofol, Median: human volunteers
Description: Blood plasma samples were drawn at various time points post administration and frozen until chromatographic analysis of propofol concentrations. Plasma propofol concentrations at various time points after administration are given for both routes of administration in Table II, below: […]

[2] = Plasma concentration of propofol derived from the test prodrug in rats (Table I); type: in vivo; conditions: rat; for F_Cmax / F_AUCt: relative to 5 mg/kg IV; for AUCt / Cmax: propofol in plasma; for AUCt: 0-360 min
Method: Upon administration, the test prodrug is converted in the body into propofol, its pharmacologically active metabolite. The pharmacokinetic profile, i.e. the blood plasma concentration of propofol derived from the test prodrug, was assessed in a separate experiment. Male Sprague-Dawley Rats (225-250 g) were obtained with indwelling jugular or intraduodenal catheters (Hilltop Labs, PA). On the day of testing, control blood samples were taken from the jugular vein prior to dosing. O-phosphonooxymethyl propofol disodium salt was then dosed in different concentrations in groups of 2-3 rats. The test prodrug was administered either by the oral, intravenous or intraduodenal routes. Blood samples (0.5 ml) were taken at 5, 15, 30, 45, 60, 120, 240 and 360 min after administration of the test prodrug. Blood samples were centrifuged to obtain plasma and stored frozen until analysis. The outcome of this experiment is depicted in the following table I:
“Cmax” is the mean maximum plasma concentration; “F Cmax” is the calculated mean bioavailability of the Cmax for propofol generated from the tested prodrug (as administered via various routes and at various doses), relative to an intravenous dose of 5 mg/kg at Cmax; “AUCt” is the mean area under the curve from time 0 to the last measured time point (360 min); “F AUCt” is the calculated mean bioavailability for AUCt. “Bioavailability” is the quotient, expressed as per cent, of the Cmax or AUCt for intragastric (po) or intraduodenal (GB) administration, and the Cmax or AUCt for a 5 mg/kg intravenous dose, adjusted for dose. […] This transformation provides a reasonable measure to compare the systemic exposure to propofol generated from the test compound (after administration of various doses by various routes) to systemic propofol exposure after I.V. administration of the prodrug.

[3] = ID (intraduodenal) 400 mg, 0.0 hr
[4] = ID (intraduodenal) 400 mg, 0.08 hr
[5] = ID (intraduodenal) 400 mg, 0.17 hr
[6] = ID (intraduodenal) 400 mg, 0.33 hr
[7] = ID (intraduodenal) 400 mg, 0.50 hr
[8] = ID (intraduodenal) 400 mg, 0.75 hr
[9] = ID (intraduodenal) 400 mg, 1.0 hr
[10] = ID (intraduodenal) 400 mg, 1.5 hr
[11] = ID (intraduodenal) 400 mg, 2.0 hr
[12] = ID (intraduodenal) 400 mg, 4.0 hr
[13] = ID (intraduodenal) 400 mg, 6.0 hr
[14] = ID (intraduodenal) 400 mg, 9.0 hr

CC(C)c1cccc(C(C)C)c1OCOP(=O)([O-])[O-].[Na+].[Na+] [O-phosphonooxymethyl propofol disodium salt]
Blood plasma concentration of propofol, Mean [1, 3]: 0.0 ng/mL | Blood plasma concentration of propofol, Median [1, 3]: 0.0 ng/mL | Blood plasma concentration of propofol, Mean [1, 4]: 194.1 ng/mL | Blood plasma concentration of propofol, Median [1, 4]: 144.5 ng/mL | Blood plasma concentration of propofol, Mean [1, 5]: 247.6 ng/mL | Blood plasma concentration of propofol, Median [1, 5]: 210.9 ng/mL | Blood plasma concentration of propofol, Mean [1, 6]: 272.0 ng/mL | Blood plasma concentration of propofol, Median [1, 6]: 277.3 ng/mL | Blood plasma concentration of propofol, Mean [1, 7]: 178.6 ng/mL | Blood plasma concentration of propofol, Median [1, 7]: 211.3 ng/mL | Blood plasma concentration of propofol, Mean [1, 8]: 76.5 ng/mL | Blood plasma concentration of propofol, Median [1, 8]: 52.3 ng/mL | Blood plasma concentration of propofol, Mean [1, 9]: 47.7 ng/mL | Blood plasma concentration of propofol, Median [1, 9]: 45.3 ng/mL | Blood plasma concentration of propofol, Mean [1, 10]: 25.4 ng/mL | Blood plasma concentration of propofol, Median [1, 10]: 24.7 ng/mL | Blood plasma concentration of propofol, Mean [1, 11]: 16.4 ng/mL | Blood plasma concentration of propofol, Median [1, 11]: 14.2 ng/mL | Blood plasma concentration of propofol, Mean [1, 12]: 5.0 ng/mL | Blood plasma concentration of propofol, Median [1, 12]: 5.6 ng/mL | Blood plasma concentration of propofol, Mean [1, 13]: 0.0 ng/mL | Blood plasma concentration of propofol, Median [1, 13]: 0.0 ng/mL | Blood plasma concentration of propofol, Mean [1, 14]: 0.0 ng/mL | Blood plasma concentration of propofol, Median [1, 14]: 0.0 ng/mL | Blood plasma concentration of propofol, Mean ([1]; Oral 400 mg, 0.0 hr): 0.0 ng/mL | Blood plasma concentration of propofol, Median ([1]; Oral 400 mg, 0.0 hr): 0.0 ng/mL | Blood plasma concentration of propofol, Mean ([1]; Oral 400 mg, 0.08 hr): 6.6 ng/mL | Blood plasma concentration of propofol, Median ([1]; Oral 400 mg, 0.08 hr): 0.0 ng/mL | Blood plasma concentration of propofol, Mean ([1]; Oral 400 mg, 0.17 hr): 103.9 ng/mL | Blood plasma concentration of propofol, Median ([1]; Oral 400 mg, 0.17 hr): 43.6 ng/mL | Blood plasma concentration of propofol, Mean ([1]; Oral 400 mg, 0.33 hr): 197.2 ng/mL | Blood plasma concentration of propofol, Median ([1]; Oral 400 mg, 0.33 hr): 153.6 ng/mL | Blood plasma concentration of propofol, Mean ([1]; Oral 400 mg, 0.50 hr): 144.1 ng/mL | Blood plasma concentration of propofol, Median ([1]; Oral 400 mg, 0.50 hr): 151.4 ng/mL | Blood plasma concentration of propofol, Mean ([1]; Oral 400 mg, 0.75 hr): 75.0 ng/mL | Blood plasma concentration of propofol, Median ([1]; Oral 400 mg, 0.75 hr): 71.1 ng/mL | Blood plasma concentration of propofol, Mean ([1]; Oral 400 mg, 1.0 hr): 53.2 ng/mL | Blood plasma concentration of propofol, Median ([1]; Oral 400 mg, 1.0 hr): 37.6 ng/mL | Blood plasma concentration of propofol, Mean ([1]; Oral 400 mg, 1.5 hr): 32.3 ng/mL | Blood plasma concentration of propofol, Median ([1]; Oral 400 mg, 1.5 hr): 22.8 ng/mL | Blood plasma concentration of propofol, Mean ([1]; Oral 400 mg, 2.0 hr): 19.0 ng/mL | Blood plasma concentration of propofol, Median ([1]; Oral 400 mg, 2.0 hr): 18.8 ng/mL | Blood plasma concentration of propofol, Mean ([1]; Oral 400 mg, 4.0 hr): 6.2 ng/mL | Blood plasma concentration of propofol, Median ([1]; Oral 400 mg, 4.0 hr): 6.6 ng/mL | Blood plasma concentration of propofol, Mean ([1]; Oral 400 mg, 6.0 hr): 0.9 ng/mL | Blood plasma concentration of propofol, Median ([1]; Oral 400 mg, 6.0 hr): 0.0 ng/mL | Blood plasma concentration of propofol, Mean ([1]; Oral 400 mg, 9.0 hr): 0.9 ng/mL | Blood plasma concentration of propofol, Median ([1]; Oral 400 mg, 9.0 hr): 0.0 ng/mL | plasma propofol after intraduodenal instillation compared to oral (in words) ([1]; intraduodenal 400 mg, human subjects): appreciably higher levels, and at earlier timepoints | plasma propofol after oral administration (in words) ([1]; oral 400 mg, human subjects): appreciable plasma concentrations of propofol | plasma propofol concentrations above the upper limit of quantification ([1]; some values from four of the subjects, second, third and fourth timepoints, 400 mg): > 400 ng/mL | F_Cmax ([2]; Gb (intraduodenal) 1 mg/kg): 14.4% | F_AUCt ([2]; Gb (intraduodenal) 3 mg/kg): 9.34% | F_Cmax ([2]; Gb (intraduodenal) 3 mg/kg): 27.3% | F_AUCt ([2]; Gb (intraduodenal) 10 mg/kg): 27.4% | F_Cmax ([2]; Gb (intraduodenal) 10 mg/kg): 35.0% | F_AUCt ([2]; Gb (intraduodenal) 30 mg/kg): 55% | F_Cmax ([2]; Gb (intraduodenal) 30 mg/kg): 74.0% | F_AUCt ([2]; Gb (intraduodenal) 100 mg/kg): 161% | F_Cmax ([2]; Gb (intraduodenal) 100 mg/kg): 102% | F_AUCt ([2]; I.V. 5 mg/kg): 100% | F_Cmax ([2]; I.V. 5 mg/kg): 100% | F_AUCt ([2]; I.V. 50 mg/kg): 117.9% | F_Cmax ([2]; I.V. 50 mg/kg): 86.7% | bioavailability of propofol liberated from the prodrug (in words) ([2]; gastric bypass): markedly enhanced | F_AUCt ([2]; p.o. 20 mg/kg): 13.3% | F_Cmax ([2]; p.o. 20 mg/kg): 3.72% | F_AUCt ([2]; p.o. 50 mg/kg): 22.2% | F_Cmax ([2]; p.o. 50 mg/kg): 4.65% | F_Cmax ([2]; p.o. 100 mg/kg): 9.20% | F_AUCt ([2]; p.o. 100 mg/kg, disodium salt): 53.2% | F_AUCt ([2]; p.o. 100 mg/kg, listed as test compound, disodium salt): above 50% | Cmax bioavailability of propofol (F Cmax, in words) ([2]; p.o. 20, 50 and 100 mg/kg): limited at all tested dose levels | AUCt ([2]; Gb (intraduodenal) 3 mg/kg): 0.389 µg·min/mL | AUCt ([2]; Gb (intraduodenal) 10 mg/kg): 3.81 µg·min/mL | AUCt ([2]; Gb (intraduodenal) 30 mg/kg): 22.9 µg·min/mL | AUCt ([2]; Gb (intraduodenal) 100 mg/kg): 223 µg·min/mL | AUCt ([2]; I.V. 5 mg/kg): 6.94 µg·min/mL | AUCt ([2]; I.V. 50 mg/kg): 81.8 µg·min/mL | AUCt ([2]; p.o. 20 mg/kg): 3.70 µg·min/mL | AUCt ([2]; p.o. 50 mg/kg): 15.4 µg·min/mL | AUCt ([2]; p.o. 100 mg/kg): 73.8 µg·min/mL | Cmax ([2]; Gb (gastric bypass, intraduodenal) 1 mg/kg): 0.00826 µg/mL | Cmax ([2]; Gb (intraduodenal) 3 mg/kg): 0.0468 µg/mL | Cmax ([2]; Gb (intraduodenal) 10 mg/kg): 0.200 µg/mL | Cmax ([2]; Gb (intraduodenal) 30 mg/kg): 1.27 µg/mL | Cmax ([2]; Gb (intraduodenal) 100 mg/kg): 5.84 µg/mL | Cmax ([2]; I.V. 5 mg/kg): 0.286 µg/mL | Cmax ([2]; I.V. 50 mg/kg): 2.48 µg/mL | Cmax ([2]; p.o. 20 mg/kg): 0.0426 µg/mL | Cmax ([2]; p.o. 50 mg/kg): 0.133 µg/mL | Cmax ([2]; p.o. 100 mg/kg): 0.526 µg/mL
